Data as given in EPA's ToxValDB 9.5 (doi:10.2903/j.efsa.2013.3235).
Where “and” joins values, the source holds several entries; their conditions need not be identical. Equal entries are not always repeated.

Tests used:
Canidae = settings: reproduction developmental; duration: 1 years; Dog Other
Rattus norvegicus = settings: for LD50: acute, mortality
Anas platyrhynchos = settings: short-term; oral; feed
Coturnix japonica = settings: acute; oral; mortality
Mus musculus = settings: acute; oral; mortality

Row | Compound | NOEL (Canidae) [mg/kg-day] | NOEL (Rattus norvegicus; chronic) [mg/kg-day] | LD50 (Colinus virginianus; acute, oral, mortality) [mg/kg] | NOEL (Colinus virginianus; reproduction developmental) | NOEL (Colinus virginianus; short-term, oral, diet) | NOEL (Anas platyrhynchos) | LD50 (Coturnix japonica) [mg/kg] | LD50 (Rattus norvegicus; F) [mg/kg] | LD50 (Rattus norvegicus; M) [mg/kg] | LD50 (Rattus norvegicus) | LD50 (Rattus norvegicus; oral) [mg/kg] | LC50 (Colinus virginianus; acute, oral, diet, mortality) [mg/kg-day] | LD50 (Mus musculus) [mg/kg]
1 | O=C([O-])[C@H](O)[C@@H](O)[C@H](O)[C@H](O)CO.O=C([O-])[C@H](O)[C@@H](O)[C@H](O)[C@H](O)CO.[Cu+2] [Copper gluconate] | 15 | 27 |  |  |  |  |  |  |  |  |  |  | 
2 | O.O.[Cu] [Copper hydroxide (Cu(OH)2)] |  |  | 223 | 5.05 mg/kg-day and 5.12 mg/kg-day | 124 mg/kg-day and 135 mg/kg-day | 216 mg/kg-day and 191 mg/kg-day | 556 | 679 | 736 | 439 mg/kg and 281 mg/kg |  |  | 
3 | [Cu+].[Cu+].[O-2] [Cuprous oxide] |  |  |  |  | 31.9 mg/kg-day |  | 1180 |  |  |  | 261 |  | 
4 | [Cl-].[Cu+2].[Cu+2].[OH-].[OH-].[OH-] [Dicopper chloride trihydroxide] |  |  | 511 |  |  |  |  | 548 | 693 | 1080 mg/kg and 807 mg/kg |  | 333 | 171
